Measured values published in patent US6071903A, “2,3,4,5-tetrahydro-1H-[1,4]-benzodiazepine-3-hydroxyamic acids” (American Cyanamid Company, priority 1999, dated 2000).

Key:
Assay type in all cases: biochemical
TACE = biological target: T1, TACE (Homo sapiens, UniProt P78536); experiment: Procedure for Measuring TACE Inhibition
T1 construct: purchased Immunex
Procedure: Procedure for Measuring TACE Inhibition
The plates were incubated for 10 minutes at room temperature. The reaction was initiated by addition of a fluorescent peptidyl substrate (final concentration 100 μM) to each well with shaking on a shaker for 5 sec.
The reaction was read (excitation 340 nm, emission 420 nm) for 10 min. and the increase in fluorescence over time was plotted as a linear line. The slope of the line was calculated and this represents the reaction rate. […] The mean (x±sem) of the control rate was calculated and compared for statistical significance (p<0.05) with drug-treated rates using Dunnett's multiple comparison test.

MMP-13 = MMP-13 (Homo sapiens, UniProt P45452); experiment: MMP-13 inhibition (Table 1); conditions: read-out: IC50 (nM) MMP-13
MMP-9 = MMP-9 (Homo sapiens, UniProt P14780); experiment: In Vitro Gelatinase Assay (MMP-9); conditions: human neutrophil gelatinase B
Procedure: The enzyme activity is measured by the rate of the color increase. The thiopeptide substrate was made up fresh as a 20 mM stock in 100% DMSO and the DTNB was dissolved in 100% DMSO as a 100 mM stock and stored in the dark at room temperature. The substrate and the DTNB were diluted together to 1 mM with substrate buffer (50 mM HEPES, pH 7.5, 5 mM CaCl2) before use. […] The assay buffer, enzyme. […] The increase in OD405 was plotted and the slope of the line was calculated. The slope represents the reaction rate.

MMP-1 = biological target: T2, MMP-1 (Homo sapiens, UniProt P03956); experiment: In Vitro Collagenase Assay (MMP-1); conditions: human recombinant fibroblast collagenase
T2 construct: human recombinant fibroblast collagenase (truncated, mw=18,828)
T2 sequence (P03956 100-269 limits assumed): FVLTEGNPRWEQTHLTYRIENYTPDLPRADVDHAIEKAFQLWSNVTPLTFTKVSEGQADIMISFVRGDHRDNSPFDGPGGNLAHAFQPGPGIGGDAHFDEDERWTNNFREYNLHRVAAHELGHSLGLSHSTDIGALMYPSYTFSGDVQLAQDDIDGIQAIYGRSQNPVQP
Excerpt: In Vitro Collagenase Assay
This assay was based on the cleavage of a peptide substrate ((Dnp-Pro-Cha-Gly-Cys(Me)-His-Ala-Lys(NMa)-NH2), available from Peptide International, Inc.) by collagenase releasing the fluorescent NMa group which was quantitated on the fluorometer as disclosed in Bickett et al., "A High Throughput Fluorogenic Substrate for Interstitial Collagenase (MMP-1) and Gelatinase (MMP-9)", Anal. Biochem., 212:58-64, (1993). Dnp quenches the NMa fluorescence in the intact substrate.
The assay was run in HCBC assay buffer (50 mM HEPES, pH 7.0, 5 mM Ca^+2, 0.02% Brij, 0.5% Cysteine), with human recombinant fibroblast collagenase (truncated, mw=18,828. from Wyeth-Ayerst Research, Radnor, Pa.). The substrate was dissolved in methanol and stored frozen in 1 mM aliquots. Collagenase was stored frozen in buffer in 25 μM aliquots. In conducting the assay, the substrate was dissolved in HCBC buffer to a final concentration of 10 μM and collagenase to a final concentration of 5 nM. The compounds being examined were dissolved in methanol, DMSO, or HCBC. The methanol and DMSO were diluted in HCBC to <1.0%. The compounds were added to a 96 well plate containing enzyme and the reaction was started by the addition of substrate.
The reaction was read (excitation 340 nm, emission 444 nm) for 10 min. and the increase in fluorescence over time was plotted as a linear line. The slope of the line was calculated representing the reaction rate. The linearity of the reaction rate was confirmed (r^2 >0.85). The mean (x±sem) of the control rate was calculated and compared for statistical significance (p<0.05) with drug-treated rates using Dunnett's multiple comparison test.

T1 sequence (P78536 215-824): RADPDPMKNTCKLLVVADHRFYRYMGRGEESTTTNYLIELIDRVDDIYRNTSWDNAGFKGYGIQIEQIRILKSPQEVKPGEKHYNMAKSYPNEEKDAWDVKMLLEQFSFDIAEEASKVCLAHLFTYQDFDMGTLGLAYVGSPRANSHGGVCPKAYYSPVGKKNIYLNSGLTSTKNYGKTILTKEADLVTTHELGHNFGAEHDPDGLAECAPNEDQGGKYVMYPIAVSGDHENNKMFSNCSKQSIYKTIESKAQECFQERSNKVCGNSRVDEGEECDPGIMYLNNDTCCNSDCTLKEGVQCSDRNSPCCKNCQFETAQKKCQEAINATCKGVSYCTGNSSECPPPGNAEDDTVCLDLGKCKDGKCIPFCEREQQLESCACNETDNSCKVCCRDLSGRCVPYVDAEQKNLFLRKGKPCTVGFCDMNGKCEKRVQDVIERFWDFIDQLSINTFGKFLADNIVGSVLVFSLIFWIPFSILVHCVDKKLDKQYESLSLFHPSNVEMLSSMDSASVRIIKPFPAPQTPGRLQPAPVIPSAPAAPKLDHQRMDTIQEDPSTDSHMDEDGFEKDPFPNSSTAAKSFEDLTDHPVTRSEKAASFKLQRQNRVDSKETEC
Sequence of MMP-9 (P14780 94-707): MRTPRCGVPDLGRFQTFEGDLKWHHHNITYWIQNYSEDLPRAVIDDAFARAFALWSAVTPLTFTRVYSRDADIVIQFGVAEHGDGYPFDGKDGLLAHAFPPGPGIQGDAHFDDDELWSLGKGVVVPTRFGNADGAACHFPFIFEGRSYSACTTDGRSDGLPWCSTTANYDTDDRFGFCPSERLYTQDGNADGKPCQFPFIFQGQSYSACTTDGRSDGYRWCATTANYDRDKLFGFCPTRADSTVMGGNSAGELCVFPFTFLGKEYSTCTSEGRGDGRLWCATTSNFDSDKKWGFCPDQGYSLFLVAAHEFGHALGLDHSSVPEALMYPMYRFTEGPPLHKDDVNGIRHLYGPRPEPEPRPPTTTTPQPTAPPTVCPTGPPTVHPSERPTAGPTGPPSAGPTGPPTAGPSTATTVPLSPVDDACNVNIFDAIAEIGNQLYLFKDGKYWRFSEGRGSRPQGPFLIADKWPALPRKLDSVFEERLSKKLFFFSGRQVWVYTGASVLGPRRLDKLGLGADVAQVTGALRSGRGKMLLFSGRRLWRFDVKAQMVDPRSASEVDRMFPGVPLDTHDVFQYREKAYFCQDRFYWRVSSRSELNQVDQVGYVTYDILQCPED

SMILES | IC50 (TACE) | IC50 (MMP-13) | IC50 (MMP-9) | IC50 (MMP-1)
CCOc1ccc(C(=O)N2CC(C(=O)NO)N(S(=O)(=O)c3ccc(OC)cc3)Cc3ccccc32)cc1 (centres unmarked) [Example 65, 1-(4-Ethoxybenzoyl)-4-(4-methoxybenzenesulfonyl)-2,3,4,5-tetrahydro-1H-[1,4]benzodiazepine-3-carboxylic acid, Hydroxyamide] | 157 nM | 1.5 nM | 1.5 nM | 23.5 nM
COc1ccc(S(=O)(=O)N2Cc3ccccc3N(S(C)(=O)=O)CC2C(=O)NO)cc1 (centres unmarked) [Example 3, 1-Methanesulfonyl-4-(4-methoxybenzenesulfonyl)-2,3,4,5-tetrahydro-1H-[1,4]benzodiazepine-3-carboxylic acid, Hydroxyamide] | 104 ± 8 nM | 3 nM | 7.9 nM | 156 nM
COCC(=O)N1CC(C(=O)NO)N(S(=O)(=O)c2ccc(OC)cc2)Cc2cc(C)ccc21 (centres unmarked) [Example 59, 1-Methoxyacetyl-4-(4-methoxybenzenesulfonyl)-7-methyl-2,3-4,5-tetrahydro-1H-[1,4]benzodiazepine-3-carboxylic acid, hydroxyamine] | 125 ± 6 nM | 1.8 nM | 2.6 nM | 105 nM
CCCS(=O)(=O)N1CC(C(=O)NO)N(S(=O)(=O)c2ccc(OC)cc2)Cc2ccccc21 (centres unmarked) [Example 10, 4-(4-Methoxybenzenesulfonyl)-1-(propane-1-sulfonyl)-2,3,4,5-tetrahydro-1H-[1,4]benzodiazepine-3-carboxylic acid, Hydroxyamide] | 91 ± 10 nM | 2.8 nM | 7 nM | 183 nM
COc1ccc(S(=O)(=O)N2Cc3ccccc3N(C(=O)c3ccc(OC)cc3OC)CC2C(=O)NO)cc1 (centres unmarked) [Example 71, 1-(2,4-Dimethoxybenzoyl)-4-(4-methoxybenzenesulfonyl)-2,3,4,5-tetrahydro-1H-[1,4]benzodiazepine-3-carboxylic acid, Hydroxyamide] | 136 nM | 1.3 nM | 2.4 nM | 41.3 nM
COc1ccc(S(=O)(=O)N2Cc3cc(C)ccc3N(C(=O)c3ccccc3-n3cccn3)CC2C(=O)NO)cc1 (centres unmarked) [Example 63] | 446 ± 48 nM | 3.1 nM | 5.6 nM | 130 nM
COc1ccc(S(=O)(=O)N2Cc3ccc(Cl)cc3N(C(=O)c3ccccc3N3CCOCC3)CC2C(=O)NO)cc1 (centres unmarked) [Example 64, 4-(4-Methoxybenzenesulfonyl)-1-[2-(4-morpholino)phenylcarbonyl}-8-chloro-2,3,4,5-tetrahydro-1H-[1,4]benzodiazepine-3-carboxylic acid, Hydroxyamide] | 384 nM | 3.4 nM | 6.1 nM | 157 nM
COc1ccc(S(=O)(=O)N2Cc3ccccc3N(C(=O)c3ccc(-c4ccccc4)cc3)CC2C(=O)NO)cc1 (centres unmarked) [Example 15, 1-(4-Biphenylcarbonyl)-4-(4-methoxybenzenesulfonyl)-2,3,4,5-tetrahydro-1H-[1,4]benzodiazepine-3-carboxylic acid, Hydroxyamide] | 199 nM | 0.4 nM | 0.7 nM | 52.7 nM
COc1ccc(S(=O)(=O)N2Cc3ccc(Cl)cc3N(C(=O)c3ccc(OC(F)(F)F)cc3)CC2C(=O)NO)cc1 (centres unmarked) [Example 61, 4-(4-Methoxybenzenesulfonyl)-1-[4-(trifluoromethoxy)benzoyl]-8-chloro-2,3,4,5-tetrahydro-1H-[1,4]benzodiazepine-3-carboxylic acid, Hydroxyamide] | 1250 ± 69 nM | 0.4 nM | 1.3 nM | 239 nM
COc1ccc(S(=O)(=O)N2Cc3cc(C)ccc3N(C(=O)c3ccccc3)CC2C(=O)NO)cc1 (centres unmarked) [Example 60, 1-Benzoyl-4-(4-methoxybenzenesulfonyl)-7-methyl-2,3,4,5-tetrahydro-1H[1,4]benzodianzepine-3-carboxylic acid, Hydroxyamide] | 143 nM | 1.3 nM | 1.4 nM | 22.7 nM
COc1ccc(S(=O)(=O)N2Cc3ccccc3N(C(=O)CN3CCN(C)CC3)CC2C(=O)NO)cc1 (centres unmarked) [Example 72, 4-(4-Methoxybenzenesulfonyl)-1-[2-(4-methylpiperazin-1-yl)acetyl]-2,3,4,5-tetrahydro-1H-[1,4]benzodiazepine-3-carboxylic acid, Hydroxyamide] | 808 nM | 317 nM | 187 nM | 4980 nM
